ChEMBL document CHEMBL1148617, “Design, synthesis, and structure-activity relationships of 1-,3-,8-, and 9-substituted-9-deazaxanthines at the human A2B adenosine receptor” (J Med Chem, 2006)

Key:
[1] = biological target: T1, Adenosine receptor A2b (Homo sapiens) (UniProt P29275); experiment: Displacement of [3H]DPCPX from recombinant human adenosine A2B receptor expressed in HEK293 cells at 0.1 uM; format: cell-based
T1 sequence (whole entry): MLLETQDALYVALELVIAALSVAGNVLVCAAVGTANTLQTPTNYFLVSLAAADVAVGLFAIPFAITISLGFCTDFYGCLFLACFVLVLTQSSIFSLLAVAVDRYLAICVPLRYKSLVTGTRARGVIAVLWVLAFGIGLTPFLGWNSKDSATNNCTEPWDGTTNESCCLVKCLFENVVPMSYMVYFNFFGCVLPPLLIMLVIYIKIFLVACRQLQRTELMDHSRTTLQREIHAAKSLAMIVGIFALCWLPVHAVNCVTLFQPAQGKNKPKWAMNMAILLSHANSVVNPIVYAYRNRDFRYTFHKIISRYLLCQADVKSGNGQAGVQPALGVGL

[2] = biological target: T1, Adenosine receptor A2b (Homo sapiens); experiment: Displacement of [3H]DPCPX from recombinant human adenosine A2B receptor expressed in HEK293 cells at 0.01 uM
[3] = biological target: Adenosine receptor A2a (Homo sapiens, UniProt P29274); experiment: Displacement of [3H]ZM-241385 from recombinant human adenosine A2A receptor expressed in HeLa cells at 0.1 uM
Sequence of Adenosine receptor A2a (P29274 whole entry): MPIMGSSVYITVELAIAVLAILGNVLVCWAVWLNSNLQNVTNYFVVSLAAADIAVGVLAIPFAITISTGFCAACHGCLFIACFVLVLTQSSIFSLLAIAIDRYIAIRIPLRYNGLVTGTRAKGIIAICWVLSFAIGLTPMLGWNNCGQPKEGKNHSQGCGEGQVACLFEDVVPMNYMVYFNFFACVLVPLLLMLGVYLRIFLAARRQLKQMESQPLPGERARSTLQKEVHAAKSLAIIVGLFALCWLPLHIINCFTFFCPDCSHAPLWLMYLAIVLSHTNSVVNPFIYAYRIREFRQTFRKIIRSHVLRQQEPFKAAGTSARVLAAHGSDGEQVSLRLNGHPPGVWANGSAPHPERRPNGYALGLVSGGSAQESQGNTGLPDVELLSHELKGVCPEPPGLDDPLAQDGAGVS

| Compound | inhibition [1] [%] | inhibition [2] [%] | inhibition [3] [%] |
| --- | --- | --- | --- |
| Cn1c(=O)c2[nH]c(-c3ccc(OCC(=O)Nc4ccc(F)cc4)cc3)cc2n(CCN2CCOCC2)c1=O | 27 | 16 | 10 |
| CCCn1c(=O)c2[nH]c(-c3ccc(OCC(=O)Nc4ccc(F)cc4)cc3OC)cc2n(CCC)c1=O | 27 | 16 | 43 |
| COCCCn1c(=O)c2[nH]c(-c3ccc(OCC(=O)Nc4ccc(Br)cc4)cc3)cc2n(CCCOC)c1=O | 85 | 45 | 30 |
| O=C(COc1ccc(-c2cc3c([nH]2)c(=O)n(CC(F)(F)F)c(=O)n3CC(F)(F)F)cc1)Nc1ccc(Br)cc1 | 79 | 29 | 11 |
| CCCn1c(=O)c2[nH]c(-c3ccc(OCC(=O)Nc4ncccc4C)cc3)cc2n(C)c1=O | 68 | 25 | 26 |
| CCCn1c(=O)c2[nH]c(-c3ccc(OCC(=O)O)cc3Cl)cc2n(CCC)c1=O | 10 | 14 | 6 |
| CCCn1c(=O)n(C)c(=O)c2[nH]c(-c3ccc(OCC(=O)Nc4ccc5c(c4)CCC5=O)cc3)cc21 | 50 | 12 | 26 |
| CCCn1c(=O)c2[nH]c(-c3ccc(OCC(=O)OCC)cc3OC)cc2n(CCC)c1=O | 1 |  | 10 |
| O=C(O)COc1ccc(-c2cc3c([nH]2)c(=O)n(CC2CC2)c(=O)n3CC2CC2)cc1 | 69 | 27 | 40 |
| CCOC(=O)c1ccc(NC(=O)COc2ccc(-c3cc4c([nH]3)c(=O)n(C)c(=O)n4C)cc2OC)cc1 | 47 | 10 | 0 |
| CCCn1c(=O)n(C)c(=O)c2[nH]c(-c3ccc(OCC(=O)Nc4ccc(Br)cc4)cc3)cc21 | 84 |  | 91 |
| CC(C)Cn1c(=O)c2[nH]c(-c3ccc(OCC(=O)Nc4ccccc4)cc3)cc2n(C)c1=O | 57 | 15 | 2 |
| O=C(COc1ccc(-c2cc3c([nH]2)c(=O)n(CC(F)(F)F)c(=O)n3CC(F)(F)F)cc1)Nc1ccc(F)cc1 | 68 | 22 | 18 |
| CCCn1c(=O)c2[nH]c(-c3ccc(OCC(=O)O)cc3OC)cc2n(CCC)c1=O | 8 |  | 10 |
| CCCn1c(=O)c2[nH]c(-c3ccc(OC(C)(C)C(=O)Nc4ccc(Br)cc4)cc3)cc2n(CCC)c1=O | 87 | 49 | 54 |
| CCCn1c(=O)c2[nH]c(-c3ccc(OC(C)(C)C(=O)O)cc3)cc2n(C)c1=O | 50 | 8 | 3 |
| O=C(O)COc1ccc(-c2cc3c([nH]2)c(=O)n(CC(F)(F)F)c(=O)n3CC(F)(F)F)cc1 | 22 | 16 | 19 |

| Compound | inhibition [1] [%] | inhibition [2] [%] | inhibition [3] [%] |
| --- | --- | --- | --- |
| O=C(COc1ccc(-c2cc3c([nH]2)c(=O)n(CC2CC2)c(=O)n3CC2CC2)cc1)Nc1ccc(F)cc1 | 95 | 57 | 98 |
| Cn1c(=O)c2[nH]c(-c3ccc(OCC(=O)NCc4ccncc4)cc3)cc2n(C)c1=O | 51 | 5 | 37 |
| COCCCn1c(=O)c2[nH]c(-c3ccc(OCC(=O)O)cc3)cc2n(CCCOC)c1=O | 12 | 10 | 9 |
| Cn1c(=O)c2[nH]c(-c3ccc(OCC(=O)N[C@H]4C(O)O[C@H](CO)[C@@H](O)[C@@H]4O)cc3)cc2n(C)c1=O (stereo not given in full) | 33 | 7 | 13 |
| CN(C(=O)COc1ccc(-c2cc3c([nH]2)c(=O)n(C)c(=O)n3C)cc1)c1ccccc1 | 61 | 15 | 0 |
| Cn1c(=O)c2[nH]c(-c3ccc(OCC(=O)O)cc3)cc2n(CCN2CCOCC2)c1=O | 18 |  | 11 |
| CCCn1c(=O)c2nc(-c3ccc(OCC(N)=O)cc3)[nH]c2n(CCC)c1=O | 56 | 11 | 10 |
| Cn1c(=O)c2[nH]c(-c3ccc(OCC(=O)O)cc3)c(Br)c2n(C)c1=O | 24 |  | 4 |
| CCCn1c(=O)c2[nH]c(-c3ccc(N(C=O)CC(=O)Nc4ccc(F)cc4)cc3)cc2n(CCC)c1=O | 93 | 24 | 89 |
| CCCn1c(=O)c2[nH]c(-c3ccc(OCC(=O)Nc4ccc(Br)cc4)cc3Cl)cc2n(CCC)c1=O | 79 | 17 | 31 |
| Cn1c(=O)c2[nH]c(-c3ccc(OC(C)(C)C(=O)O)cc3)cc2n(C)c1=O | 14 | 3 | 2 |
| COCCCn1c(=O)c2[nH]c(-c3ccc(OCC(=O)Nc4ccc(F)cc4)cc3)cc2n(CCCOC)c1=O | 68 | 24 | 20 |
| O=C(COc1ccc(-c2cc3c([nH]2)c(=O)n(CC2CC2)c(=O)n3CC2CC2)cc1)Nc1ccc(Br)cc1 | 94 | 43 | 89 |
| O=C(COc1ccc(-c2cc3c([nH]2)c(=O)n(CC(F)(F)F)c(=O)n3CC(F)(F)F)cc1)Nc1ccccc1 | 57 | 15 | 4 |
| CC(C)Cn1c(=O)c2[nH]c(-c3ccc(OCC(=O)O)cc3)cc2n(C)c1=O | 28 |  | 1 |
| Cn1c(=O)c2[nH]c(-c3cccc(OCC(=O)O)c3)cc2n(C)c1=O | 23 |  | 15 |

Second part, the compound after the results:

| inhibition [1] [%] | inhibition [2] [%] | inhibition [3] [%] | Compound |
| --- | --- | --- | --- |
| 68 | 20 | 45 | CCCn1c(=O)c2[nH]c(-c3ccc(OCC(=O)Nc4cccc(C)n4)cc3)cc2n(CCC)c1=O |
| 58 | 29 | 39 | CCCn1c(=O)c2[nH]c(-c3ccc(OCC(=O)NC(C(=O)OC)c4ccccc4)cc3)cc2n(CCC)c1=O (stereo not given) |
| 46 | 10 | 61 | CCCn1c(=O)c2[nH]c(-c3ccc(N(C=O)CC(=O)Nc4ccccc4)cc3)cc2n(CCC)c1=O |
| 65 | 1 | 28 | COCCCn1c(=O)c2[nH]c(-c3ccc(OCC(=O)Nc4ccccc4)cc3)cc2n(CCCOC)c1=O |
| 70 | 14 | 18 | CCCn1c(=O)c2[nH]c(-c3ccc(OCC(=O)N[C@H](C)[C@H](O)c4ccccc4)cc3)cc2n(CCC)c1=O |
| 68 | 10 | 34 | CCCn1c(=O)c2[nH]c(-c3ccc(OCC(=O)Nc4cnccn4)cc3)cc2n(CCC)c1=O |
| 55 | 9 | 21 | CCCn1c(=O)c2[nH]c(-c3ccc(OCC(=O)OCC)cc3)cc2n(CCC)c1=O |
| 77 | 30 | 53 | CCCn1c(=O)c2[nH]c(-c3ccc(OCC(=O)NC(CO)c4ccccc4)cc3)cc2n(CCC)c1=O (stereo not given) |
| 45 | 38 | 3 | CCCn1c(=O)c2[nH]c(-c3ccc(OCC(=O)NC(C(=O)O)c4ccccc4)cc3)cc2n(CCC)c1=O (stereo not given) |
| 88 | 23 | 80 | CCCn1c(=O)c2[nH]c(-c3ccc(OCC(=O)Nc4ccc(F)cc4O)cc3)cc2n(CCC)c1=O |
| 74 | 25 | 75 | CCCn1c(=O)c2[nH]c(-c3ccc(OCC(=O)NC(CCl)c4ccccc4)cc3)cc2n(CCC)c1=O (stereo not given) |
| 60 | 25 | 34 | CCCn1c(=O)c2[nH]c(-c3ccc(OCC(=O)Nc4cc(C)ccn4)cc3)cc2n(CCC)c1=O |
| 47 | 10 | 5 | CCCn1c(=O)c2[nH]c(-c3ccc(OC(C(=O)O)c4ccccc4)cc3)cc2n(CCC)c1=O (stereo not given) |
| 53 | 12 | 27 | CCCn1c(=O)c2[nH]c(-c3ccc(OCC(=O)Nc4cc(C)cc(C)n4)cc3)cc2n(CCC)c1=O |
| 83 | 19 | 48 | CCCn1c(=O)c2[nH]c(-c3ccc(OCC(=O)Nc4cccnc4)cc3)cc2n(CCC)c1=O |
| 71 | 31 | 22 | CCCn1c(=O)c2[nH]c(-c3ccc(OCC(=O)Nc4ncccc4O)cc3)cc2n(C)c1=O |
| 32 | 15 | 15 | CCCn1c(=O)n(C)c(=O)c2[nH]c(-c3ccc(OCC(=O)N(C)Cc4ccccc4)cc3)cc21 |
| 21 | 10 | 19 | CCCn1c(=O)n(C)c(=O)c2[nH]c(-c3ccc(OCC(=O)NCc4ccccc4)cc3)cc21 |
| 84 | 32 | 65 | CCCn1c(=O)c2[nH]c(-c3ccc(OC(C(=O)Nc4ccc(F)cc4)c4ccccc4)cc3)cc2n(CCC)c1=O (stereo not given) |
| 89 | 29 | 73 | CCCn1c(=O)c2[nH]c(-c3ccc(OCC(=O)Nc4cc(F)ccc4O)cc3)cc2n(CCC)c1=O |
| 85 | 14 | 19 | CCCn1c(=O)c2[nH]c(-c3ccc(OCC(=O)Nc4ccc(C(F)(F)F)cc4)cc3)cc2n(CCC)c1=O |
